Common to all, as to assay: DTP human tumour cell line panel, 48 h
Assay [1] concerns SF-539.
The subject of assay [2] is UACC-62.
Assay [3] concerns UO-31.
Assay [4] relates to 786-0.
Assay [5] relates to CAKI-1.
For assay [6], the system named is HL-60.
The test system of assay [7] is COLO 205.
The test system of assay [8] is LOX IMVI.
Assay [9] concerns A549.
Assay [10] relates to KM12.
The test system of assay [11] is HCT-116.
Assay [12] deals with SNB-19.
The subject of assay [13] is Malme-3M.
In assay [14] the test system is M14.
For assay [15], the system named is OVCAR-5.
For assay [16], the system named is OVCAR-3.
Assay [17] concerns IGROV-1.
Assay [18] deals with SF-295.
In assay [19] the test system is SR.
Assay [20] has as its system HT-29.

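Cells were grown in 96-well plates and exposed to each compound for 48 hours at five concentrations; endpoints were interpolated linearly between bracketing concentrations, or set to the highest concentration if not reached. GI50 = concentration required for 50% inhibition of growth.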 Activity calls are given as the source filed them. Cut-off read from the data, not from the text of the source: active = GI50 up to about 1.1 µM and inactive = higher. Starred links: 1 amine or outer side, 2 acyl side, 3 side chain; linkers in the order of their positions; H or OH if unused. Non-standard residues stand in square brackets, D forms with d. Residues, ends and D or L forms follow the SMILES beside them. *: point of attachment. X47 = CCC(=O)CC1CC(C)CC(C(=O)[*:2])N1[*:1]; X46 = CCCCCCCCC(C)C(=O)*; Aib = CC(C)(N)C(=O)O; X48 = CC(CN(C)CCO)N* A value given as a limit tells only on which side of the number the result lay.

With `O=C(CCc1cccc(O)c1)NCCCNC(=O)CCc1cccc(O)c1`, the GI50 was > 100 µM (inactive) in [1]; > 100 µM (inactive) in [2]; > 100 µM (inactive) in [3]; > 100 µM (inactive) in assay [4]; > 100 µM (inactive) in assay [5]; < 0.01 µM (active) in assay [6]. Moreover, the GI50 in [7], in [8], in assay [9], in [10], in assay [11] and in [12] was > 100 µM (inactive) throughout. The GI50 in assay [13], in assay [14], in [15], in assay [16], in assay [17] and in assay [18] was > 100 µM (inactive) in each case. Further, the GI50 in [19] and in [20] was > 100 µM (inactive) throughout.
With `COC(=O)CNS(=O)(=O)c1ccc(-c2c3nc(c(-c4ccc(S(=O)(=O)NCC(=O)OC)cc4)c4ccc([nH]4)c(-c4ccc(S(=O)(=O)NCC(=O)OC)cc4)c4nc(c(-c5ccc(S(=O)(=O)NCC(=O)OC)cc5)c5ccc2[nH]5)C=C4)C=C3)cc1`, the GI50 is > 100 µM (inactive) in assay [1]; 62.2 µM (inactive) in assay [2]; > 100 µM (inactive) in assay [3]; > 100 µM (inactive) in assay [4]; > 100 µM (inactive) in assay [5]; > 100 µM (inactive) in assay [6]. Further, the GI50 in [7] is > 100 µM (inactive); in assay [8] it was > 100 µM (inactive); in [9], > 100 µM (inactive); in assay [10], 50.7 µM (inactive); in assay [11] it was > 100 µM (inactive); in [12], > 100 µM (inactive). Also, the GI50 in [13] was > 100 µM (inactive); in [14], 18.7 µM (inactive); in [15] it was > 100 µM (inactive); in [16], > 100 µM (inactive); in assay [17] it was > 100 µM (inactive); in assay [18] it was > 100 µM (inactive). For the same compound, the GI50 in assay [19] and in assay [20] was > 100 µM (inactive) each time.
Consider `CCCCCCCCC(C)C(=O)N1CCCC1C(=O)N1C(CC(=O)CC)CC(C)CC1C(=O)NC(C)C(=O)NC(C)(C)C(=O)NC(C)(C)C(=O)NC(C(=O)NC(C)C(=O)NC(C)(C)C(=O)NC(C)(C)C(=O)NC(C)CN(C)CCO)C(C)CC` (centres undefined) (X46-P[X47]A[Aib][Aib]IA[Aib][Aib]-X48; configuration not given here), for which the GI50 in assay [1] was 0.211 µM (active); in assay [2], 1.89 µM (inactive); in [3], 0.124 µM (active); in assay [4], 0.106 µM (active); in assay [5], 0.818 µM (active); in assay [6], < 0.0106 µM (active). The GI50 in [7] is 0.0135 µM (active); in assay [8], 0.355 µM (active); in assay [9], < 0.01 µM (active); in assay [10], 0.142 µM (active); in assay [11] it was 0.0299 µM (active); in assay [12] it was 0.214 µM (active). Besides, the GI50 was 1.26 µM (inactive) in assay [13]; 0.593 µM (active) in [14]; 0.889 µM (active) in assay [15]; < 0.01 µM (active) in assay [16]; 0.221 µM (active) in assay [17]; < 0.01 µM (active) in assay [18]. Also, the GI50 was 0.0294 µM (active) in [19] and 0.0261 µM (active) in assay [20].
Regarding `C=C1c2nc3ccccc3n2C=C(c2ccc(OC)cc2)N1c1ccccc1`, the GI50 in [1] was 6.67 µM (inactive); in assay [2] it was 3.67 µM (inactive); in [3] it was 9.02 µM (inactive); in assay [4], 6.11 µM (inactive); in assay [5], 37.8 µM (inactive); in assay [6], 1.59 µM (inactive). The GI50 in assay [7] is 5.36 µM (inactive); in [8] it was 7.36 µM (inactive); in assay [9], 5.37 µM (inactive); in assay [10] it was 2.62 µM (inactive); in [11], 3.95 µM (inactive); in [12], 11.3 µM (inactive). Moreover, the GI50 is 3.98 µM (inactive) in assay [13]; 4.43 µM (inactive) in assay [14]; > 78.5 µM (inactive) in assay [15]; 6.62 µM (inactive) in [16]; 5.85 µM (inactive) in assay [17]; 3.44 µM (inactive) in assay [18]. In addition, the GI50 in [19] is 1.96 µM (inactive); in assay [20], 9.68 µM (inactive).
As for `COc1ccc(/C=C/c2cc(O)cc(OC3OC(CO)C(O)C(O)C3O)c2)cc1O` (centres undefined), the GI50 was 57.1 µM (inactive) in assay [1]; 19.4 µM (inactive) in assay [2]; 19.2 µM (inactive) in assay [3]; > 100 µM (inactive) in assay [4]; > 100 µM (inactive) in assay [5]; > 100 µM (inactive) in assay [6]. In addition, the GI50 in [7] is > 100 µM (inactive); in assay [8], > 100 µM (inactive); in assay [9] it was 69.2 µM (inactive); in assay [10], 18.9 µM (inactive); in assay [11], 68.7 µM (inactive); in assay [12], > 100 µM (inactive). The GI50 was 67.1 µM (inactive) in assay [13]; > 100 µM (inactive) in assay [14]; 67.1 µM (inactive) in assay [15]; > 100 µM (inactive) in [16]; 66.2 µM (inactive) in assay [17]; 51.8 µM (inactive) in assay [18]. In addition, the GI50 in assay [19] and in assay [20] was > 100 µM (inactive) in each case.
For `Nc1nc(N)nc(CC(=O)O)n1`, the GI50 in [1], in assay [2], in assay [3], in assay [4], in [5] and in assay [6] was > 100 µM (inactive) throughout. Moreover, the GI50 in [7], in assay [8], in assay [9], in assay [10], in assay [11] and in assay [12] was > 100 µM (inactive) throughout. The GI50 in assay [13], in assay [14], in assay [15], in [16], in assay [17] and in assay [18] was > 100 µM (inactive) throughout. For the same compound, the GI50 in [19] and in assay [20] was > 100 µM (inactive) each time.
Regarding `O=[N+]([O-])c1ccc(C(Cl)C(Cl)c2ccc(C(Cl)C(Cl)c3ccc([N+](=O)[O-])cc3[N+](=O)[O-])cc2)c([N+](=O)[O-])c1` (centres undefined), the GI50 in [1] is 1.67 µM (inactive); in assay [2], 1.16 µM (inactive); in [3] it was 2.17 µM (inactive); in [4], 1.39 µM (inactive); in [5] it was 1.67 µM (inactive); in assay [6], 1.93 µM (inactive). Also, the GI50 in [7] was 1 µM (active); in assay [8] it was 1.36 µM (inactive); in [9] it was 1.63 µM (inactive); in assay [10], 0.264 µM (active); in [11], 0.931 µM (active); in [12], 0.671 µM (active). Further, the GI50 in assay [13] is 1.27 µM (inactive); in [14] it was 0.879 µM (active); in [15], 1.86 µM (inactive); in assay [16], 0.254 µM (active); in [17], 2.05 µM (inactive); in assay [18], 2.31 µM (inactive). In addition, the GI50 is 2.23 µM (inactive) in assay [19] and 1.76 µM (inactive) in assay [20].
Turning to `COc1cc(CN[C@H]2CCc3cc(OC)c(OC)c(OC)c3-c3ccc(SC)c(=O)cc32)cc(OC)c1`, the 50% growth inhibitory concentration (GI50) was 0.0206 µM (active) in assay [1]; 0.0238 µM (active) in [2]; 0.0938 µM (active) in [3]; 0.0468 µM (active) in [4]; 0.0566 µM (active) in assay [5]; 0.0394 µM (active) in [6]. The GI50 was 0.0325 µM (active) in assay [7]; 0.0465 µM (active) in assay [8]; 0.0376 µM (active) in [9]; 0.0385 µM (active) in assay [10]; 0.0399 µM (active) in assay [11]; 0.0681 µM (active) in [12]. Besides, the GI50 in [13] is 0.0575 µM (active); in [14], 0.0322 µM (active); in assay [15], 0.0499 µM (active); in [16], 0.0334 µM (active); in [17] it was 0.0403 µM (active); in assay [18], 0.0336 µM (active). In addition, the GI50 in assay [19] is < 0.01 µM (active); in assay [20], 0.0249 µM (active).
As to `CC(=O)OCCOCn1cnc2c(Cl)nc(Cl)nc21`, the GI50 was > 10 µM (inactive) in [1]; 16.1 µM (inactive) in assay [2]; 21.2 µM (inactive) in assay [3]; 21.4 µM (inactive) in [4]; 0.275 µM (active) in [5]; 2.65 µM (inactive) in assay [6]. The GI50 was 18.6 µM (inactive) in [7]; 4.3 µM (inactive) in [8]; > 10 µM (inactive) in assay [9]; 18.2 µM (inactive) in [10]; 18.2 µM (inactive) in assay [11]; 31.2 µM (inactive) in [12]. Also, the GI50 in assay [13] was 15.8 µM (inactive); in assay [14], 17.1 µM (inactive); in [15] it was 19.1 µM (inactive); in assay [16], 14 µM (inactive); in [17], 14.3 µM (inactive); in assay [18], > 10 µM (inactive). Further, the GI50 is 3.87 µM (inactive) in [19] and 15.4 µM (inactive) in assay [20].
As to `COC(=O)C(=O)Nc1cc2c3c(c1)Oc1cccc4c1C3(C)c1c(cccc1O2)O4`, the GI50 is 33 µM (inactive) in assay [1]; > 100 µM (inactive) in [2]; 98.6 µM (inactive) in assay [3]; 30.9 µM (inactive) in [4]; > 72.4 µM (inactive) in assay [5]; 0.105 µM (active) in [6]. In addition, the GI50 was > 31.6 µM (inactive) in assay [7]; 71.3 µM (inactive) in [8]; > 100 µM (inactive) in [9]; > 100 µM (inactive) in assay [10]; > 75.2 µM (inactive) in [11]; > 100 µM (inactive) in assay [12]. Also, the GI50 in assay [13] was > 65.9 µM (inactive); in [14], > 100 µM (inactive); in [15], > 55.2 µM (inactive); in assay [16], 34.2 µM (inactive); in assay [17], 55.8 µM (inactive); in assay [18] it was > 100 µM (inactive). The GI50 in assay [19] is 2.93 µM (inactive).

These data come from ChEMBL document CHEMBL1201862, “PubChem BioAssay data set” (2004).
